We go through 7 molecules from ChEMBL document CHEMBL5728228, “Inhibitors of cyclin-dependent kinases” (2021).

The structures appear in SMILES notation. pIC50: −log10 of the molar value.

The nature of this assay: Protein kinase assay (Condition B: Thiol-free Conditions): The IC50 profile of compounds was determined using one protein kinase in a customized, thiol free assay. […] Prior to testing, the 1×10−03 M stock solutions in column 2 of the master plates were subjected to a serial, semi-logarithmic dilution using 100% DMSO as a solvent. […] Column 1 and 7 were filled with 100% DMSO as controls. Subsequently, 2×10 microliter from each well of the serial diluted copy plates were aliquoted with a 96 channel pipettor into two identical sets of “compound dilution plates”. All plates were barcoded for automated identification and tracking purposes. […] All compounds were stored as powder until being solubilized in DMSO. Solubilized compounds were stored as 1×10−02 M/100% DMSO stock solutions. Prior to the assay process, 90 microliters of H2O were added to each well of a set of compound dilution plates. To minimize potential precipitation, the H2O was added to each plate only a few minutes before the transfer of the compound solutions into the assay plates. Each plate was shaken thoroughly, resulting in compound dilution plates with a final of 10% DMSO. For each assay, 5 microliters of solution from each well of the compound dilution plates/10% DMSO were transferred into the assay plate. The final volume of the assay was 50 μl. All compounds were tested at 10 final assay concentrations in the range from 1×10−05 M to 3×10−10 M, in singlicate. The final DMSO concentration in the reaction cocktails was 1% in all cases. A radiometric protein kinase assay (33PanQinase® Activity Assay) was used for measuring the kinase activity of the protein kinase. All kinase assays were performed in 96-well FlashPlates™ from PerkinElmer (Boston, Mass., USA) in a 50 microliter reaction volume. The reaction cocktail was pipetted in four steps in the following order: 20 microliter of assay buffer (standard buffer)·5 microliter of ATP solution (in H2O)·5 microliter of test compound (in 10% DMSO)·20 microliter enzyme/substrate mix. […] For all experiments labeled as “Thiol-free”, all glutathione was exchanged from protein preparations so as to be removed from the assay and final buffer conditions contained no thiol-containing reagents. This was done so there would be no interference with the key cysteines in the proteins of interest.
For orientation: pIC50 means the IC50 on a negative log10 scale, so that one unit is a factor of ten. For `C=CC(=O)N(C)c1ccc(C(=O)N2CC[C@@H](Nc3ncc(Cl)c(OC)n3)C2)cc1`, the negative-log IC50 (pIC50) is more than 7.00.

The molecule `C=CC(=O)Nc1ccc(C(=O)N2CC[C@@H](Nc3ncc(Br)c(OC)n3)C2)cc1` gave a pIC50 of more than 7.00.

As to `CCC(=O)Nc1ccc(C(=O)N2CC[C@@H](Nc3ncc(Br)c(OC)n3)C2)cc1`, the pIC50 was more than 7.00.

Molecule `C=CC(=O)Nc1ccc(C(=O)N2CC[C@@H](Nc3ncc(Cl)c(OC)n3)C2)cc1` had a pIC50 of more than 7.00.

In the case of `C=CC(=O)Nc1ccc(C(=O)N2CC[C@@H](Nc3ncc(Br)cn3)C2)cc1`, the negative logarithm of the IC50 (pIC50) was more than 7.00.

Molecule `C=CC(=O)Nc1ccc(C(=O)N2CC[C@@H](Nc3cc(OC)c(Cl)cn3)C2)cc1` showed a pIC50 of more than 7.00.

In turn, `C=CC(=O)Nc1ccc(C(=O)N2CC[C@@H](Nc3ncc(Cl)c(OC)n3)C2)cc1C` gave a pIC50 of more than 7.00.
